Key:
Vero cells = assay: Protein synthesis ([3H]leucine) in cells treated with DOTMA liposomes / 2-5A analog; type: cell-based; conditions: 6 hours incubation, alone (no DOTMA); 2-5A analog at 10^−6 M
Description: Oligoadenylates of the general structure ppp(A2′p)nA, n≧2, are referred to as “2-5A”. 2-5A molecules are well known, to those skilled in the art, to bind to an intracellular endonuclease resulting in activation of the endonuclease with subsequent cleavage of ribosomal and messenger RNA, resulting in inhibition of protein synthesis. […] A calcium phosphate coprecipitation technique can be employed to artificially introduce 2-5A into cells, which can be monitored by inhibition of protein synthesis. […] The solutions were then removed by aspiration, the cells were labelled for 90 minutes with [^3H] leucine (1 μCi/0.5 ml/well), and the trichloroacetic acid (TCA)-precipitable radioactivity was determined after incubating 30 minutes with cold 10% TCA, washing, harvesting the cells with 0.1 M NaOH, neutralizing with HCl, and quantitating the radioactivity by liquid scintillation counting. […] However, the calcium phosphate treatment was very toxic to the cells, as determined from their morphology as well as approximately up to 40% reduction in protein synthesis of the cells receiving only the calcium phosphate treatment but no 2-5A.
Cells were incubated and protein synthesis was determined as described above except that the 60 mM CaCl2 was not included. […] In another test, cells were incubated with samples for 2, 6, or 18 hours and protein synthesis was determined as described above.

[1] = Solubility of drug in phosphate buffered saline; type: physicochemical
Description: For example, 1-[4-(4-chlorophenyl)-2-(2,6-dichlorophenylthio)-n-butyl] imidazole nitrate without the presence of any of the compounds of this invention is insoluble in aqueous buffer (phosphate buffered saline, pH 7.4).
A 0.3% soluble preparation of the above drug was prepared using the following method:
18 mg of 1-[4-(4-chlorophenyl)-2-(2,6-dichlorophenylthio)-n-butyl] imidazole nitrate and 482 mg of N-(2,3-di-(9-(Z)-octadecenyloxy)-prop-1-yl-N,N,N-trimethylammonium chloride were dissolved in methylene dichloride. The methylene dichloride was evaporated under a stream of nitrogen and the dried film placed under vacuum overnight. The dried film was suspended in 6 ml phosphate buffered saline, pH 7.4, and sonicated to clarity.

JZ.1 cells = assay: Transient transfection with pSV2CAT, CAT activity; type: cell-based, rat
Description: (§1) (a) Formation of the lipid-DNA complexBoth DNA and lipid are diluted to 1.5 ml each with HBS (150 mM NaCl, 20 mM Hepes pH 7.4) and then mixed. The DNA lipid complexes form immediately. A typical transfection would use 1 to 10 μg DNA and 100 μg of total lipid (DOTMA:PE, 1:1).
(§2) (b) Treatment of cells—Just confluent 100 mm tissue culture plates of cells are washed 2× with 5 ml of HBS and 3 ml of the DNA-lipid solution is added. The cells are incubated for 3-5 hours at 37° and then 10 ml of DMEM+10% fcs is added. After incubation for 16 hours at 37° the medium is replaced with 10 ml fresh medium and cells are harvested by scraping 2-3 days later. Cell extracts were prepared and CAT assays performed as previously described. For stable transfections 50% confluent cells were treated as above except that 2 days after transfection cells were passaged and grown in selective medium for either neomycin resistance (0.4 mg/ml G418) or E. coli XGPRT expression.
(§3) Cells were transfected with calcium phosphate precipitated DNA as described with the addition of a glycerol shock. Similarly cells were transfected with the DEAE-dextran method as described.

CV-1 cells = assay: Transient transfection with pSV2CAT, CAT activity; type: cell-based, monkey; conditions: CV-1 and COS 7 cells
Description: as §1, §2, §3
Cells transfected with the plasmid pSV2CAT express CAT enzyme activity that can be measured in cell extracts 2 days after transfection. […]

mouse L-cells [2] = assay: DNA transfection of mouse L-cells; type: cell-based
Description: as §1
as §2, with “The cells are incubated for 3-5 hours at 37° and then 10 ml of DMEM+10% fcs is added.” left out

[3] = DNA-lipid complex formation on sucrose density gradient; type: physicochemical; conditions: lipid mixed with DNA at a ratio of 5:1 (wt:wt), gentle mixing
Description: DNA interacts spontaneously with solutions of DOTMA to form lipid-DNA complexes. This complex formation is due presumably to ionic interactions between the positively charged group on the DOTMA molecule and the negatively charged phosphate groups on the DNA. Complex formation was examined using a sucrose density gradient (not shown). In the absence of lipid, DNA migrated to the bottom of the gradient while lipid, in the absence of DNA, floated at the top. When lipid was mixed with DNA at a ratio of 5:1 (wt:wt) all the DNA migrated with the lipid. The association of 100% of the DNA with DOTMA after gentle mixing contrasts with conventional liposome encapsulation procedures which usually entrap less than 10% of the DNA, require an additional purification step to remove unencapsulated DNA or involve potentially destructive conditions such as vigorous agitation or sonication.

mouse L-cells [4] = assay: Cytotoxicity of dsRNA introduced into cells (trypan blue viability); type: cell-based
Description: Interferon treatment of various cells including both mouse and human cells results in induction of an enzyme, 2-5A synthetase, which when activated by double stranded RNA produces 2-5A. 2-5A is a polymer of ATP that contains unique 2′-5′ linkages rather than the standard 3′-5′ linkages. 2-5A is effectively a communication molecule which activates a latent 2′-5′ endonuclease resulting in degradation of cellular mRNA. […] In the presence of double stranded RNA, 2-5A is produced and can be produced in sufficient concentrations to degrade the majority of the cellular RNA, including ribosomal RNA, resulting in cell death. In this respect, this system can be used as cytotoxic assay to analyze the capacity of a compound to introduce double stranded RNA into the cytoplasm of a cell. The double stranded RNA commonly used is poly IC, a commercially available compound which is used experimentally and classically to induce interferon by methods well known to those familiar in the art. Poly IC will not penetrate cells and cause cytotoxic effects alone, but requires a vehicle to help carry it across the cell membrane. The most common agent used for this purpose is DEAE dextran in experimental cell culture systems and a complex of carboxymethyl cellulose and polylysine in clinical use. […]

Vero or L929 cells = assay: Inhibition of protein synthesis ([3H]leucine) by 2-5A, calcium phosphate coprecipitation; type: cell-based
Description: Oligoadenylates of the general structure ppp(A2′p)nA, n≧2, are referred to as “2-5A”. 2-5A molecules are well known, to those skilled in the art, to bind to an intracellular endonuclease resulting in activation of the endonuclease with subsequent cleavage of ribosomal and messenger RNA, resulting in inhibition of protein synthesis. […] A calcium phosphate coprecipitation technique can be employed to artificially introduce 2-5A into cells, which can be monitored by inhibition of protein synthesis. Thus 10^−5 to 10^−9 M 2-5A was added to a solution of 120 mM CaCl2, which was then added dropwise into bubbled Hepes buffered saline, pH 7.05 (8.0 g NaCl, 0.37 g KCl, 0.125 g Na2HPO4″2H2O, 1.0 g glucose, and 5.0 g Hepes per liter). A final sample volume of 0.5 ml was added to quadruplicate wells of Costar 24 well plates containing confluent Vero or L929 cells. After 45 minutes at room temperature, an additional 0.5 ml of media was added to each well and incubated an additional 90 minutes at 37° C. The solutions were then removed by aspiration, the cells were labelled for 90 minutes with [^3H] leucine (1 μCi/0.5 ml/well), and the trichloroacetic acid (TCA)-precipitable radioactivity was determined after incubating 30 minutes with cold 10% TCA, washing, harvesting the cells with 0.1 M NaOH, neutralizing with HCl, and quantitating the radioactivity by liquid scintillation counting. […] 50%-maximal inhibition occurred at approximately 10^−9 M 2-5A. However, the calcium phosphate treatment was very toxic to the cells, as determined from their morphology as well as approximately up to 40% reduction in protein synthesis of the cells receiving only the calcium phosphate treatment but no 2-5A.

L-TK cells = assay: Stable transfection frequency (drug resistant colonies); type: cell-based, murine; conditions: pSV2neo 1 μg with 10 μg carrier DNA
Description: (§4) (b) Treatment of cells—Just confluent 100 mm tissue culture plates of cells are washed 2× with 5 ml of HBS and 3 ml of the DNA-lipid solution is added. The cells are incubated for 3-5 hours at 37° and then 10 ml of DMEM+10% fcs is added. After incubation for 16 hours at 37° the medium is replaced with 10 ml fresh medium and cells are harvested by scraping 2-3 days later. Cell extracts were prepared and CAT assays performed as previously described.
as §3

TA1 cells = assay: as above; type: cell-based, murine
Description: as §4, §3

Ψ2 cells = assay: as above; type: cell-based, murine
Description: as §4, §3

MSN610.2 cells = assay: as above; type: cell-based, rat; conditions: MSN610.2, pSV2neo 1 μg with 10 μg carrier DNA
Description: as §4, §3

5′-triphosphophoryladenylyl-(2′→5′)adenylyl-(2′→5′)adenylyl-(2′→6′)(3′-aza-N-hexyl-1′,2′,3′,4′-tetradeo xyhexopyranos-1′-yl)adenine [2-5A analog]
% of protein synthesis of untreated cells (Vero cells): 82±14%

Clc1ccc(CCC(Cn2ccnc2)Sc2c(Cl)cccc2Cl)cc1.O=[N+]([O-])O (stereo not shown) [1-[4-(4-chlorophenyl)-2-(2,6-dichlorophenylthio)-n-butyl] imidazole nitrate]
soluble preparation of drug ([1]; 18 mg drug with 482 mg DOTMA in 6 ml phosphate buffered saline pH 7.4, sonicated to clarity): 0.3%
solubility in aqueous buffer ([1]; phosphate buffered saline, pH 7.4, without compounds of the invention): insoluble

CCCCCCCC/C=C\CCCCCCCCOCC(C[N+](C)(C)C)OCCCCCCCC/C=C\CCCCCCCC.[Cl-] (stereo not shown) [DOTMA, N-(2,3-di(9-(Z)-octadecenyloxy))-prop-1-yl-N,N,N-trimethylammonium chloride]
fold enhancement over the DEAE-dextran procedure (JZ.1 cells): ≥ 80 fold
fold increase in CAT activity relative to transient transfection with DEAE-dextran (CV-1 cells): 6-11 fold
CAT activity (% of control) (mouse L-cells [2]; serum present from the outset): less than 5%
DNA associated with lipid [3]: 100%

CCCCCCCCCCCCCCCCCC[N+](C)(C)CCCCCCCCCCCCCCCCCC.[Br-] [dioctadecyl dimethyl ammonium bromide]
efficacy as mediators of DNA transfection (mouse L-cells [2]): little efficacy

CCCCCCCCCCCCCCCCCCN [stearylamine]
efficacy as mediators of DNA transfection (mouse L-cells [2]): little efficacy

Poly IC
Cell Survival (mouse L-cells [4]; 1 million cells, 24 hrs treatment, trypan blue): 100%
frequency of surviving cells (mouse L-cells [4]; poly IC introduced by the DOTMA lipid): 1×10^−6

calcium phosphate
reduction in protein synthesis (Vero or L929 cells; calcium phosphate treatment only, no 2-5A): up to 40%
% of protein synthesis of untreated cells (Vero cells): 64±3%
Frequency × 10^5 (L-TK cells): 3
Frequency × 10^5 (TA1 cells; TA1, pMSGC5a 7 μg): 1.3
Frequency × 10^5 (TA1 cells; TA1, pSV2neo 1 μg with 10 μg carrier DNA): 2
Frequency × 10^5 (TA1 cells; TA1, pZIPSVX 7 μg): 0.7
Frequency × 10^5 (Ψ2 cells; Ψ2, pZIPC5a 7 μg): 1.8
Frequency × 10^5 (Ψ2 cells; Ψ2, pZIPSVX 7 μg): 0.6
Frequency × 10^5 (MSN610.2 cells): 1.3

ppp(A2′p)2A
IC50 (Vero or L929 cells; after the calcium-phosphate precipitation technique, read-out: 50%-maximal inhibition of protein synthesis): ~1 nM
inhibition of protein synthesis (Vero or L929 cells; all concentrations, without calcium phosphate coprecipitation): no inhibition of protein synthesis

— US6387395B1, “N-[1, (1-1) -dialkyloxy] - and N- [1, (1-1) -dialkenyloxy]- alk-1-yl-N,N,N-tetrasubstituted ammonium lipids and uses therefor” (priority 1985, dated 2002)
